The text below walks through data of PMC12567268 (Pharmaceuticals, 2025).

The conditions of data set [1]: healthy subjects, co-administration of RTV 400 mg twice daily; cited from earlier work.
The conditions of data set [2]: cited from earlier work.
The conditions of data set [3]: cited from earlier work. The source holds these as a separate data set.
The conditions of data set [4]: rats; cited from earlier work.
The conditions of data set [5]: humans; cited from earlier work.
For data set [6] the following is noted: healthy human subjects, cited from earlier work.
Data set [7] in a line: In vivo PK DDI study of TOF with or without RTV in rats (plasma LC-MS/MS, NCA). Also on record: species or system Sprague–Dawley rats. Particulars: for concentration at 12 h: oral, rat plasma, 12 h after TOF 10 mg/kg oral. On the procedure: The rats were randomly divided into three groups (eight rats per group) after 1 week of acclimatization. Each rat was pretreated with RTV by oral gavage at different doses for four consecutive days (from Day 1 to Day 4) to ensure steady-state CYP3A inhibition, based on studies indicating rapid onset of inhibition. Group 1 (control group) received the vehicle (normal saline). Groups 2 and 3 served as test groups and received 10 and 20 mg/kg RTV once daily (QD), respectively. […] The collected samples were centrifuged at 10,000 rpm for 10 min at 4 °C to separate the plasma and stored at −80 °C until analysis.
Plasma samples were prepared by protein precipitation with acetonitrile containing domperidone as an internal standard (100 ng/mL). After vortex mixing and centrifugation at 15,000× g for 10 min at 4 °C, the supernatant was analyzed by LC-MS/MS with an injection volume of 5 μL. Chromatographic separation was achieved on a C18 reversed-phase column with a mobile phase of 0.1% formic acid in water and acetonitrile at a flow rate of 0.4 mL/min. Mass spectrometry was performed in positive ion mode with an electrospray ionization probe. […] Detailed instrument settings, sample preparation, calibration, and validation data are provided in Supplementary Material (Tables S1 and S2; Figure S1).

Another data set relates to CYP3A4. Particulars: in vitro study; cited from earlier work.
[8] abbreviates: Sprague-Dawley, rat, plasma, po, 10 mg/kg, rats, TOF 10 mg/kg oral, Control (TOF only, vehicle), median [interquartile range].
Setting [9] is: rats, TOF 10 mg/kg oral, Control (TOF only, vehicle), median [interquartile range].
The mark [10] stands for this setting: rats, TOF 10 mg/kg oral, RTV 10 mg/kg, median [interquartile range].

Read-outs that look alike come from different tables or passages of the source.

In the case of `C[C@@H](c1ncncc1F)[C@](O)(Cn1cncn1)c1ccc(F)cc1F` [voriconazole], the “Decrease in steady-state AUC” value in data set [1] is recorded as 82%.

`C=CC[C@@H]1/C=C(\C)C[C@H](C)C[C@H](OC)[C@H]2O[C@@](O)(C(=O)C(=O)N3CCCC[C@H]3C(=O)O[C@H](/C(C)=C/[C@@H]3CC[C@@H](O)[C@H](OC)C3)[C@H](C)[C@@H](O)CC1=O)[C@H](C)C[C@@H]2OC` [Tacrolimus]: in data set [2] (patients undergoing long-term tacrolimus treatment), the “Change in exposure on co-administration with RTV” value is listed as “increase to toxic levels within 3 days”.

What is called AUC(0-inf) is total exposure, with the tail of the curve extrapolated. Usually half-life stands for how long it takes for the measured level to halve. A low value points to rapid decline. As to `C[C@@H]1CCN(C(=O)CC#N)C[C@@H]1N(C)c1ncnc2[nH]ccc12` [TOF, Tofacitinib], the “Increase in AUC of TOF” value is given as 39% in data set [3] (rats pretreated with fluconazole (inhibitor of CYP2C11)); 46% in data set [3] (rats pretreated with ketoconazole (inhibitor of CYP3A1/2)); 166% in data set [3] (rats, with voriconazole (inhibits CYP3A1/2 and CYP2C11)); 79% in data set [6] (co-administration of fluconazole); 103% in data set [6] (co-administration of ketoconazole). In addition, the “Bioavailability (BA)” value in data set [4] is 29.1%. Further, the “Hepatic clearance as share of total clearance” value in data set [5] is 70%. For the same compound, the “Renal clearance as share of total clearance” value in data set [5] was 30%. Also, the concentration at 12 h in data set [7] (Sprague-Dawley, rat, plasma, RTV 10 mg/kg, read-out: Lowest plasma concentration at 12 h) was found to be 1.5 ng/mL; in data set [7] (Sprague-Dawley, rat, plasma, RTV 10 mg/kg, read-out: Mean plasma concentration at 12 h), 21.9 ng/mL; in data set [7] (Sprague-Dawley, rat, plasma, RTV 20 mg/kg, read-out: Lowest plasma concentration at 12 h) it was 2.6 ng/mL; in data set [7] (Sprague-Dawley, rat, plasma, RTV 20 mg/kg, read-out: Mean plasma concentration at 12 h), 12.1 ng/mL. Further, the AUC(0-inf) in data set [7] (setting [8]) is 2720 ng·h/mL; in data set [7] (Sprague-Dawley, rat, plasma, po, 10 mg/kg, rats, TOF 10 mg/kg oral, RTV 20 mg/kg pretreatment and coadministration, median [interquartile range]), 16000 ng·h/mL. Moreover, the half-life in data set [7] (setting [8]) is 72.6 min; in data set [7] (Sprague-Dawley, rat, plasma, po, 10 mg/kg, rats, TOF 10 mg/kg oral, RTV 10 mg/kg, median [interquartile range]), 60 min; in data set [7] (Sprague-Dawley, rat, plasma, po, 10 mg/kg, rats, TOF 10 mg/kg oral, RTV 20 mg/kg, median [interquartile range]) it was 52.2 min. Besides, the Cmax in data set [7] (Sprague-Dawley, rat, plasma, po, 10 mg/kg, rats, TOF 10 mg/kg oral, RTV 10 mg/kg, median [interquartile range], read-out: Cmax) is 2250 ng/mL; in data set [7] (Sprague-Dawley, rat, plasma, po, 10 mg/kg, rats, TOF 10 mg/kg oral, RTV 20 mg/kg, median [interquartile range], read-out: Cmax) it was 3900 ng/mL; in data set [7] (setting [9]), 1362 [1263–1410] ng/mL. Moreover, the Tmax in data set [7] (Sprague-Dawley, rat, plasma, po, 10 mg/kg, read-out: Tmax) was 1 h; in data set [7] (setting [9]), 0.25 [0.25–0.5] h; in data set [7] (setting [10]), 0.5 [0.44–1.0] h. The CL in data set [7] (setting [9]) is 3.57 [2.65–4.49] L/h/kg; in data set [7] (setting [10]), 1.65 [1.19–2.11] L/h/kg; in data set [7] (rats, TOF 10 mg/kg oral, RTV 20 mg/kg, median [interquartile range]), 0.66 [0.60- 0.73] L/h/kg. In addition, the “Change of half-life (t1/2) with RTV” value in data set [7] (rats, TOF 10 mg/kg oral, RTV 10 and 20 mg/kg vs Control, p = 0.08) is “remained unchanged”.

On to `COc1ccc2c3c1O[C@H]1C(=O)CC[C@@]4(O)[C@@H](C2)N(C)CC[C@]314` [oxycodone], for which, in data set [2] (in the presence of RTV), the “Change in exposure in the presence of RTV” value is recorded as “tripled”.

Take `CC(=O)N1CCN(c2ccc(OCC3COC(Cn4ccnc4)(c4ccc(Cl)cc4Cl)O3)cc2)CC1` (stereo not shown) [ketoconazole]: the “Inhibition of the overall metabolism of TOF” value in the data set on CYP3A4 was “over 70%”.
